{
  "source": "patent US7601373B2",
  "about": "“Equine feed product” (priority 2002, dated 2009)",
  "key": {"[1]": {"tested_on": "thoroughbred yearlings", "experiment": "Example Three: inorganic versus chelated copper with chelated zinc in feed supplement", "type": "in vivo, horse", "conditions": "100 mg/day copper and 300 mg/day chelated zinc in 100 g/day supplement, ten weeks, grass high in molybdenum", "description": "A trial was conducted on ten thoroughbred yearlings (six colts and four fillies) using optimum levels of copper and zinc. The horses were divided into two groups with five horses in each group. The trials were conducted over a period of ten weeks. During this period the horses were stabled, each horse was handwalked for one hour a day and put to grass for three hours a day.\nThe copper used in the feed supplement for the first group of five horses was inorganic copper, copper sulfate whilst the copper used in the oat-balancing feed supplement for the second group was chelated copper. The horses has an average body weight of 425 kg. The horses were fed a combined diet of Ryegrass Hay, Rolled Irish Oats, Cooked Flaxseed and the feed supplement.\nIn trial one, 100 g of the oat balancing feed supplement was fed to each horse daily. There was 100 mg of inorganic copper in present in the oat balancing feed supplement.\nGroup 1: 100 mg/day Inorganic Copper & 300 mg/day Chelated Zinc\nIn the second group the five horses were fed the same combined diet however the copper present in the feed supplement was chelated copper. Again there was 100 mg of copper present in 100 g of the oat balancing feed supplement.\nGroup 2: 100 mg/day Chelated Copper & 300 mg/day Chelated Zinc"}, "[2]": {"tested_on": "foals, yearlings and adult horses", "experiment": "Example Five: calcium feeding trials at various stages of development", "type": "in vivo, horse", "description": "A number of trials were conducted on horses throughout various stages of development fed with varying levels of calcium. The first two trials were conducted on twelve foals over a nine month period. The trial began when the foals were aged three months. […] Each foal was fed 2.5 g of Calcium a day within a balanced diet for a period of three months. The Calcium dosage was then increased to 5.0 g a day for a further period of six months as the foals average weight had increased to 240 kg.\nThe third trial comprised a group of ten yearlings with average weight 425 kg body. The yearlings were fed 7.5 g of Calcium a day over a period of ten weeks. The fourth trial was conducted on adult horses with average body weight of 500 kg aged 18+ months. Each adult horse was fed 10.0 g of Calcium per day."}, "[3]": {"tested_on": "horses", "experiment": "Example Four: magnesium supplementation, Stress Tetany and performance", "type": "in vivo, horse", "from_the_text": "Magnesium is considered to be an essential daily mineral in equine diets. A deficiency of magnesium in the diet in conjunction with any condition that will produce stress can lead to Stress Tetany. An example of a stress-causing condition is transportation of the horse over long distances. […] Some weeks later the same horse was transported to another location. The journey lasted approximately four hours.\nTrials conducted where the quantity of magnesium introduced into the horse was varied from 2 g/day of magnesium oxide to 4 g/day of magnesium oxide."}, "[4]": {"tested_on": "horses", "experiment": "Example One: amino acid feeding trial with varied lysine; PCV, haemoglobin, coat colour, racecourse performance", "type": "in vivo, horse", "conditions": "15 g/day lysine with 5 g/day methionine and 5 g/day threonine", "description": "Lysine, methionine and threonine are essential amino acids. Trials were conducted on eleven horses (eight geldings and three fillies) where the horses were randomly split into three groups. Two groups contained four horses and the third group contained three horses. The horses varied in age between three and eight years old with an average body weight of 500 kg. The Packed Cell Volumes (PCVs) and haemoglobin levels of each horse were tested. Visual observations such as coat colour and racecourse performances were also monitored. In these Example all three amino acids were administered to the horses together as all three amino acids are essential. The quantities of methionine and threonine were constant for each group whilst the quantity of lysine was varied between the groups. Oats are deficient in lysine therefore it is necessary to boost the horses intake of lysine while maintaining a constant level of methionine and threonine\nQuantities of Amino Acid Administered to Horses Daily"}, "[5]": {"tested_on": "poor performing racehorses", "conditions": "six anaemic racehorses, within a matter of weeks; cited from earlier work"}},
  "data": [
    {"compound": "O=S(=O)([O-])[O-].[Cu+2]", "note": "[Inorganic Copper, copper sulfate]", "values": [
      {"measurement": "coat colour", "setting": "[1]", "value": "poor coat colour"},
      {"measurement": "red cell production", "setting": "[1]", "value": "decreased red cell production"},
      {"measurement": "thrive", "setting": "[1]", "value": "lack of thrive"}
    ]},
    {"compound": "[Ca+2]", "note": "[Calcium]", "values": [
      {"measurement": "bone development, limb formation and weight gain", "setting": "[2]; 2.5 to 10.0 g/day Calcium according to age", "value": "clinically adequate bone development, correct limb formation and normal weight gain"},
      {"measurement": "Average weight at 6 months", "setting": "[2]; Foals 3-6 months, 2.5 g/day Calcium, 118 Kg at 3 months", "value": 240, "unit": "Kg at 6 months"},
      {"measurement": "Average weight at 12 months", "setting": "[2]; Foals 6-12 months, 5.0 g/day Calcium, 240 Kg at 6 months", "value": 375, "unit": "Kg at 12 months"},
      {"measurement": "Average weight at 18 months", "setting": "[2]; Yearlings 12-18 months, 7.5 g/day Calcium, 375 Kg at 12 months", "value": 475, "unit": "Kg at 18 months"}
    ]},
    {"compound": "[O]=[Mg]", "note": "[magnesium oxide]", "values": [
      {"measurement": "performance", "setting": "[3]; 4 g/day of magnesium oxide (varied from 2 g/day to 4 g/day)", "value": "optimum performance"},
      {"measurement": "temperament, weight and coat colour", "setting": "[3]; magnesium oxide 4 g/day", "value": "improvement in the temperament of the horse was observed in conjunction with weight gain and better coat colour"}
    ]},
    {"compound": "NCCCC[C@H](N)C(=O)O", "note": "[lysine]", "values": [
      {"measurement": "coat colour and racecourse performance", "setting": "[4]", "value": "optimum coat colour and racecourse performance"},
      {"measurement": "PCV levels", "setting": "[4]; average of horses, 500 kg", "value": "> 42", "unit": "per cent per liter"},
      {"measurement": "haemoglobin levels", "setting": "[4]; average of horses, 500 kg", "value": "> 14", "unit": "g per deciliter"}
    ]},
    {"compound": "N[C@@H](Cc1cc(I)c(Oc2cc(I)c(O)c(I)c2)c(I)c1)C(=O)O", "note": "[Thyroxine]", "values": [
      {"measurement": "red cell parameters", "setting": "[5]", "value": "all elevated"}
    ]}
  ]
}
